According to ChEMBL document CHEMBL3102856, “The marine cyanobacterial metabolite gallinamide A is a potent and selective inhibitor of human cathepsin L” (J Nat Prod, 2014):
Active and inactive are the calls of the source. The rule behind the calls is not given here.

Legend:
Procathepsin L [1] = biological target: T1, Procathepsin L (Homo sapiens, UniProt P07711); assay: Irreversible inhibition of recombinant human cathepsin L using Z-Phe-Arg-aminomethylcoumarin as substrate
Target sequence in this assay (P07711 whole entry): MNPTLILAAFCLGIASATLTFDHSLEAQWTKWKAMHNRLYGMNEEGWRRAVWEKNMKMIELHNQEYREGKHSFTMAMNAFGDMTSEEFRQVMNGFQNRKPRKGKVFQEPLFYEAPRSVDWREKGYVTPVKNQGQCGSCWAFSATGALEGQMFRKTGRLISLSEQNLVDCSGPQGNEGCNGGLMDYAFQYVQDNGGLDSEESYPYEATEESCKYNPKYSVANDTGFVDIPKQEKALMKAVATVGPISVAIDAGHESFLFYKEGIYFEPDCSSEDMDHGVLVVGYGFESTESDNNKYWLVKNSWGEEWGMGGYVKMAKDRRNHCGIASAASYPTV

Homo sapiens [2] = species on record: Homo sapiens; assay: Selectivity index, ratio of IC50 for human Cathepsin V to IC50 for recombinant human Cathepsin L using Z-Phe-Arg-aminomethylcoumarin as substrate
Cathepsin L2 [3] = biological target: T2, Cathepsin L2 (Homo sapiens, UniProt O60911); assay: Inhibition of human Cathepsin V using Z-Phe-Arg-aminomethylcoumarin as substrate
T2 sequence (O60911 whole entry): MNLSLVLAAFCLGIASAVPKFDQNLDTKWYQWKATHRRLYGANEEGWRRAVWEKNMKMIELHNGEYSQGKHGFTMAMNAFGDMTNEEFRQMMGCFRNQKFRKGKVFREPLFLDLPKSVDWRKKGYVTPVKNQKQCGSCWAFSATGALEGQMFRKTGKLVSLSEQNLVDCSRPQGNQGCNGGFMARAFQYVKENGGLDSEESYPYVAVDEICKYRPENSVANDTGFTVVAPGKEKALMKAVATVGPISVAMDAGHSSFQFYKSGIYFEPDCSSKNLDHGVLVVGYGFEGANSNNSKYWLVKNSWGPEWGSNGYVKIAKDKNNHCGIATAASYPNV

Procathepsin L [4] = biological target: T1, Procathepsin L; assay: Inhibition of recombinant human Cathepsin L using Z-Phe-Arg-aminomethylcoumarin as substrate
Cathepsin B [5] = biological target: T3, Cathepsin B (Homo sapiens, UniProt P07858); assay: Inhibition of human Cathepsin B using Z-Phe-Arg-aminomethylcoumarin as substrate preincubated for 30 mins followed by substrate addition
Homo sapiens [6] = species on record: Homo sapiens; assay: Selectivity index, ratio of IC50 for human Cathepsin V to IC50 for recombinant human Cathepsin L using Z-Phe-Arg-aminomethylcoumarin as substrate preincubated for 30 mins followed by substrate addition
Pro-cathepsin H [7] = biological target: T4, Pro-cathepsin H (Homo sapiens, UniProt P09668); assay: Inhibition of human Cathepsin H using Arg-aminomethylcoumarin as substrate preincubated for 30 mins followed by substrate addition
T4 sequence (P09668 whole entry): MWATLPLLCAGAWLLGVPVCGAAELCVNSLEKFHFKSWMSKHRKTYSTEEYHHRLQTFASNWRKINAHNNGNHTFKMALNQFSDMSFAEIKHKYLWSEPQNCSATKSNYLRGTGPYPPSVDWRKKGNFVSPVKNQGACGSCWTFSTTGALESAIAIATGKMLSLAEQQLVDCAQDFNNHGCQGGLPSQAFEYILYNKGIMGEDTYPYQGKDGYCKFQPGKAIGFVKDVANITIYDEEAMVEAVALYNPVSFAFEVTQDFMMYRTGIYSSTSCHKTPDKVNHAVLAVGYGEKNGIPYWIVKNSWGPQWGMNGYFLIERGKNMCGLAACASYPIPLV

Procathepsin L [8] = biological target: T1, Procathepsin L; assay: Inhibition of recombinant human Cathepsin L using Z-Phe-Arg-aminomethylcoumarin as substrate preincubated for 30 mins followed by substrate addition
Target sequence in this assay (P07711 whole entry): as the sequence (P07711 whole entry) above

Cathepsin L2 [9] = biological target: T2, Cathepsin L2; assay: Inhibition of human Cathepsin V using Z-Phe-Arg-aminomethylcoumarin as substrate preincubated for 30 mins followed by substrate addition
Homo sapiens [10] = species on record: Homo sapiens; assay: Selectivity index, ratio of IC50 for human Cathepsin B to IC50 for recombinant human Cathepsin L after 30 mins using Z-Phe-Arg-aminomethylcoumarin as substrate preincubated for 30 mins followed by substrate addition
Procathepsin L [11] = biological target: T1, Procathepsin L; assay: Irreversible inhibition of recombinant human Cathepsin L using Z-Phe-Arg-aminomethylcoumarin as substrate assessed as residual activity at 10 fold IC50 preincubated for 30 mins followed by 100 fold dilution measured for 2 hrs by fluorescence assay
Target sequence in this assay (P07711 114-333 limits assumed): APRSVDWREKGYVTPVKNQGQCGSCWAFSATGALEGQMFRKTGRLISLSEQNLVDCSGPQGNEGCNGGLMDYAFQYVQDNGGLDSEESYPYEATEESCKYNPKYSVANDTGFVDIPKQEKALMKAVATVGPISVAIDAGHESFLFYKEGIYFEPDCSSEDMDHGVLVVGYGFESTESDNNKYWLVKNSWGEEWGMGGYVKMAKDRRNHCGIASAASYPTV

Homo sapiens [12] = species on record: Homo sapiens; assay: Selectivity index, ratio of IC50 for human Cathepsin B to IC50 for recombinant human Cathepsin L using Z-Phe-Arg-aminomethylcoumarin as substrate
Cathepsin B [13] = biological target: T3, Cathepsin B; assay: Inhibition of human Cathepsin B using Z-Phe-Arg-aminomethylcoumarin as substrate
Procathepsin L [14] = biological target: T1, Procathepsin L; assay: Inhibition of recombinant human Cathepsin L assessed as inhibition of activity-based probe DCG-04 labelling preincubated for 30 mins followed by DCG-04 addition measured after 30 mins
Target sequence in this assay (P07711 114-333 limits assumed): as above

Pro-cathepsin H [15] = biological target: T4, Pro-cathepsin H; assay: Inhibition of human Cathepsin H using Arg-aminomethylcoumarin as substrate

SMILES: CC[C@H](C)[C@@H](C(=O)O[C@@H](CC(C)C)C(=O)N[C@@H](CC(C)C)C(=O)N[C@@H](C)/C=C/C(=O)N1C(=O)C=C(OC)[C@@H]1C)N(C)C [GALLINAMIDE A]
- Ki (Procathepsin L [1]): 9000 M⁻¹ s⁻¹
- Ratio IC50 (Homo sapiens [2]): 10
- IC50 (Cathepsin L2 [3]): 460 nM
- IC50 (Procathepsin L [4]): 47 nM
- inhibition (Procathepsin L [4]; TDE = time-dependent effect): tde
- IC50 (Cathepsin B [5]): 1700 nM
- Ratio IC50 (Homo sapiens [6]): 28
- IC50 (Pro-cathepsin H [7]): > 30000 nM
- IC50 (Procathepsin L [8]): 5 nM
- IC50 (Cathepsin L2 [9]): 140 nM
- Ratio IC50 (Homo sapiens [10]): 320
- inhibition (Procathepsin L [11]): Active
- Ratio IC50 (Homo sapiens [12]): 91
- IC50 (Cathepsin B [13]): 4200 nM
- inhibition (Procathepsin L [14]): Dose-dependent effect
- IC50 (Pro-cathepsin H [15]): > 30000 nM
